Measurements: the pKa sets of Baltruschat and Czodrowski (2020)

Compared with `CCN(C)C`, `CN(C)C` is lower in pKa: 10.2 for the first, 9.8 for the second.

Going from `CC(=O)N1CCNCC1` to `FC1CCNCC1`, the pKa rises from 7.9 to 9.4.

First: CN(C)C(C)(C)CCCc1ccc(C(C)(C)C)cc1
Second: CN(C)CC(C)(C)CCc1ccc(C(C)(C)C)cc1
The pKa of the first is higher: 10.4 for the first, 9.4 for the second.

Compared with `CCCCN`, `NCCCF` is lower in pKa: 10.7 for the first, 9.9 for the second.

Going from `FC1(Cc2ccccc2)CCN(CCCc2c[nH]c3ccc(-n4cnnc4)cc23)CC1` to `c1ccc(CC2CCN(CCCc3c[nH]c4ccc(-n5cnnc5)cc34)CC2)cc1`, the pKa rises from 8.8 to 9.7.

Compared with `CN(C)CC(F)(F)F`, `NCCC(F)(F)F` is higher in pKa: 4.8 for the first, 8.7 for the second.

Going from `NCC(F)F` to `NCCCC(F)(F)F`, the pKa rises from 7.3 to 9.7.

Compared with `FC(F)(Cc1c[nH]c2ccc(-n3cnnc3)cc12)CN1CCC(Cc2ccccc2)CC1`, `FC(Cc1c[nH]c2ccc(-n3cnnc3)cc12)CN1CCC(Cc2ccccc2)CC1` (stereo not drawn) is higher in pKa: 6.7 for the first, 8.7 for the second.

Compared with `FC1(F)CCNCC1`, `FC1(F)CCCNC1` is lower in pKa: 8.5 for the first, 7.4 for the second.

`CN(C)CCCC(C)(C)c1ccc(C(C)(C)C)cc1` and `CN(C)CCCCc1ccc(C(C)(C)C)cc1` are within 0.2 log units of each other in pKa: 9.8 for the first, 9.9 for the second.

`CCCCN(C)C` and `CN1CCCCC1` are within 0.2 log units of each other in pKa: 10.2 for the first, 10.1 for the second.

Compound `FC1CCCNC1` (stereo not drawn) has a pKa of 9.3.
